Values quoted from earlier work in US10010648B2, “Transdermal delivery system” (Edixomed Limited, priority 2013, dated 2018).

Legend:
[1] = healthy 70 kg-adult

Row | Compound | generally accepted safe dosage for topical anaesthesia [1] | pKa
1 | CCN(CC)CC(=O)Nc1c(C)cccc1C [lidocaine] | 750 mg | 
2 | COC(=O)[C@H]1[C@@H](OC(=O)c2ccccc2)C[C@@H]2CC[C@H]1N2C [cocaine] | 200 mg | 
3 | C=CC(=O)O [acrylic acid] |  | 4.3 to 4.4
4 | CCCCNc1ccc(C(=O)OCCN(C)C)cc1 [tetracaine] | 50 mg | 
